One may read the IC50 as the concentration that inhibits the measured activity by half. The low end stands for higher potency, the high end for lower potency.

Structures are written as SMILES.

Results on 40 compounds are retold here after patent publication US7816535B2, “Vinyl-phenyl derivatives for inflammation and immune-related uses” (Synta Pharmaceuticals Corp., priority 2006, dated 2010).

For this experiment, the system named is IL-2 production. Nature of the experiment: Inhibition of IL-2 production in PHA-activated Jurkat cells (ELISA). It is filed as cell-based. The conditions noted are these: Homo sapiens, PHA 2.5 μg/mL, IL-2 ELISA. On the procedure:
Jurkat cells were placed in a 96 well plate (0.5 million cells per well in 1% FBS medium) then a test compound of this invention was added at different concentrations. After 10 minutes, the cells were activated with PHA (final concentration 2.5 μg/mL) and incubated for 20 hours at 37° C. under CO2. The final volume was 200 μL. Following incubation, the cells were centrifuged and the supernatants collected and stored at −70° C. prior to assaying for IL-2 production. A commercial ELISA kit (IL-2 Eli-pair, Diaclone Research, Besancon, France) was used to detect production of IL-2, from which dose response curves were obtained. The IC50 value was calculated as the concentration at which 50% of maximum IL-2 production after stimulation was inhibited versus a non-stimulation control.
A general note: ELISA stands for enzyme-linked immunosorbent assay.

For the compound `CC1=C(c2ccc(NC(=O)c3ccncc3F)cc2)CCCC1` [Compound 1, 3-Fluoro-N-[4-(2-methyl-cyclohex-1-enyl)-phenyl]-isonicotinamide], half-maximal inhibition (Jurkat, 20 h) (IC50) required 84 nM.

Regarding `C=C(C)[C@@H]1CCC(C)=C(c2ccc(NC(=O)c3ccncc3C)cc2)C1` [Compound 2, 3-Methyl-N-[4-(2-methyl-5(R)-isopropenyl-cyclohex-1-enyl)-phenyl]-isonicotinamide], it took 11 nM to reach half-maximal inhibition (Jurkat, 20 h) (IC50).

Compound `C=C(C)[C@H]1CCC(C)=C(c2ccc(NC(=O)c3ccncc3C)cc2)C1` [Compound 3, 3-Methyl-N-[4-(2-methyl-5(S)-isopropenyl-cyclohex-1-enyl)-phenyl]-isonicotinamide] displayed an IC50 (Jurkat, 20 h) of 9 nM.

`C=C(C)[C@@H]1CCC(C)=C(c2ccc(NC(=O)c3ccncc3F)cc2)C1` [Compound 4, 3-Fluoro-N-[4-(2-methyl-5(R)-isopropenyl-cyclohex-1-enyl)-phenyl]-isonicotinamide] had an IC50 (Jurkat, 20 h) of 7 nM.

`C=C(C)[C@H]1CCC(C)=C(c2ccc(NC(=O)c3ccncc3F)nc2)C1` [Compound 5] returned a half-inhibitory concentration (IC50) (Jurkat, 20 h) of 13.9 nM.

Take `CC(=O)[C@@H]1CCC(C)=C(c2ccc(NC(=O)c3ccncc3C)cc2)C1` [Compound 6, 3-Methyl-N-[4-(2-methyl-5(R)-acetyl-cyclohex-1-enyl)-phenyl]-isonicotinamide]: the IC50 (Jurkat, 20 h) stood at 68 nM.

In turn, `CCOC(=O)N1C=C(c2ccc(NC(=O)c3c(F)cccc3F)cc2)C(C)CC1` (stereo not shown) [Compound 8, 5-[4-(2,6-difluoro-benzoylamino)-phenyl]-4-methyl-2,4-dihydro-2H-pyridine-1-carboxylic acid ethyl ester] registered an IC50 (Jurkat, 20 h) of 95 nM.

In turn, `CC1=C(c2ccc(NC(=O)c3ccncc3C)cc2)C[C@@H]([C@@](C)(O)CO)CC1` [Compound 9, N-(4-((S)-5-((R)-1,2-dihydroxypropan-2-yl)-2-methylcyclohex-1-enyl)phenyl)-3-methylisonicotinamide] returned an IC50 (Jurkat, 20 h) of 748 nM.

On to `CC1=C(c2ccc(NC(=O)c3c(F)cccc3F)cc2)CN(C)CC1` [Compound 10, N-(4-(1,4-dimethyl-1,2,5,6-tetrahydropyridin-3-yl)phenyl)-2,6-difluorobenzamide], for which the 50% inhibitory concentration (IC50) (Jurkat, 20 h) was above 1000 nM.

Turning to `CC1=C(c2ccc(NC(=O)c3c(F)cccc3F)cc2)CN(Cc2ccccc2)CC1` [Compound 11, N-(4-(1-benzyl-4-methyl-1,2,5,6-tetrahydropyridin-3-yl)phenyl)-2,6-difluorobenzamide], the IC50 (Jurkat, 20 h) was above 1000 nM.

Compound `CCOC(=O)N1CCC(C)=C(c2ccc(NC(=O)c3c(F)cccc3F)cc2)C1` [Compound 12, Ethyl 3-(4-(2,6-difluorobenzamido)phenyl)-4-methyl-5,6-dihydropyridine-1(2H)-carboxylate] had an IC50 (Jurkat, 20 h) of 23 nM.

The compound `CC(C)=C(C)c1ccc(NC(=O)c2ccncc2F)cc1` [Compound 13, 3-Fluoro-N-(4-(3-methylbut-2-en-2-yl)phenyl)-isonicotinamide] gave an IC50 (Jurkat, 20 h) of 382 nM.

In turn, `CC(C)=C(c1ccccc1)c1ccc(NC(=O)c2ccncc2C)cc1` [Compound 14, 3-Methyl-N-(4-(2-methyl-1-phenylprop-1-enyl)phenyl)-isonicotinamide] displayed an IC50 (Jurkat, 20 h) of 159 nM.

In the case of `CC1=C(c2ccc(NC(=O)c3c(F)cccc3F)cc2)CCN(C)C1` [Compound 15, N-(4-(1,5-Dimethyl-1,2,3,6-tetrahydropyridin-4-yl)phenyl)-2,6-difluorobenzamide], the IC50 (20 hours) was above 1000 nM.

As to `CCOC(=O)N1CCC(c2ccc(NC(=O)c3c(F)cccc3F)cc2)=C(C)C1` [Compound 16, Ethyl 4-(4-(2,6-difluorobenzamido)phenyl)-3-methyl-5,6-dihydropyridine-1(2H)-carboxylate], inhibition (Jurkat, 20 h) was half-maximal at 24.6 nM (IC50).

Under “20 hours”, `CC1=C(c2ccc(NC(=O)c3c(F)cccc3F)cc2)CCNC1` [Compound 17, 2,6-Difluoro-N-(4-(5-methyl-1,2,3,6-tetrahydropyridin-4-yl)phenyl)benzamide] had a half-inhibitory concentration (IC50) above 1000 nM.

In turn, `O=C(Nc1ccc(C2=CCCCC2)cc1)c1ccncc1F` [Compound 18, N-(4-Cyclohexenylphenyl)-3-fluoroisonicotinamide] showed an IC50 (Jurkat, 20 h) above 1000 nM.

Take `CC1=C(c2ccc(NC(=O)c3c(F)cccc3F)cc2)CCN(Cc2ccccc2)C1` [Compound 19, N-(4-(1-benzyl-5-methyl-1,2,3,6-tetrahydropyridin-4-yl)phenyl)-2,6-difluorobenzamide]: the IC50 (20 hours) is 513 nM.

`O=C(Nc1ccc(C2=C(Cl)CCCC2)cc1)c1c(F)cccc1F` [Compound 21, N-[4-(2-chloro-cyclohex-1-enyl)-phenyl]-2,6-difluoro-benzamide] returned a concentration for half-maximal inhibition (IC50) (Jurkat, 20 h) of 23.2 nM.

Consider `O=C(Nc1ccc(C2=C(CO)CCCC2)cc1)c1c(F)cccc1F` [Compound 22, N-[4-(2-hydroxymethyl-cyclohex-1-enyl)-phenyl]-2,6-difluoro-benzamide], for which, where the note is “Jurkat, 20 h”, the half-maximal inhibitory concentration (IC50) came out at 721 nM.

Compound `O=C(Nc1ccc(C2=C(c3cnco3)CCCC2)cc1)c1c(F)cccc1F` [Compound 23, N-[4-(2-oxazol-5-yl-cyclohex-1-enyl)-phenyl]-2,6-difluoro-benzamide] gave an IC50 (Jurkat, 20 h) of 7.4 nM.

Consider `O=C(Nc1ccc(C2=C(c3cnco3)CCCC2)cc1)c1ccncc1F` [Compound 24, N-[4-(2-oxazol-5-yl-cyclohexen-1-yl)-phenyl]-3-fluoroisonicotinamide], for which the half-inhibitory concentration (IC50) (Jurkat, 20 h) is 68 nM.

Regarding `CC1=C(c2ccc(NC(=O)c3c(F)cccc3F)cc2)CCCC1` [Compound 25, N-[4-(2-methyl-cyclohex-1-enyl)-phenyl]-2,6-difluoro-benzamide], the IC50 (Jurkat, 20 h) is 7.2 nM.

Compound `CC1=C(c2ccc(NC(=O)c3ncncc3C)cc2)CCCC1` [Compound 26, 5-Methyl-pyrimidine-4-carboxylic acid [4-(2-methyl-cyclohex-1-enyl)-phenyl]-amide] had a half-maximal inhibitory concentration (IC50) (Jurkat, 20 h) of 165 nM.

For `CC1=C(c2ccc(NC(=O)c3cncnc3C)cc2)CCCC1` [Compound 27, 4-Methyl-pyrimidine-5-carboxylic acid [4-(2-methyl-cyclohex-1-enyl)-phenyl]-amide], the IC50 (Jurkat, 20 h) was determined as 38.9 nM.

`CC1=C(c2ccc(NC(=O)c3scnc3Cl)cc2)CCCC1` [Compound 28, 4-Chloro-thiazole-5-carboxylic acid [4-(2-methyl-cyclohex-1-enyl)-phenyl]-amide]: the concentration for half-maximal inhibition (IC50) (Jurkat, 20 h) is 143 nM.

The compound `CCC1=C(c2ccc(NC(=O)c3c(F)cccc3F)cc2)CCCC1` [Compound 29, N-[4-(2-ethyl-cyclohex-1-enyl)-phenyl]-2,6-difluoro-benzamide] had an IC50 (Jurkat, 20 h) of 17.4 nM.

Regarding `CCOC(=O)C1=C(c2ccc(NC(=O)c3c(F)cccc3F)cc2)CCC1` [Compound 30, 2-[4-(2,6-Difluoro-benzoylamino)phenyl]-cyclopent-1-enecarboxylic acid ethyl ester], where the note is “Jurkat, 20 h”, half-maximal inhibition (IC50) required 300 nM.

The compound `O=C(Nc1ccc(C2=C(CO)CCC2)cc1)c1c(F)cccc1F` [Compound 31, 2,6-Difluoro-N-[4-(2-hydroxymethyl-cyclopent-1-enyl)-phenyl]-benzamide] came in with an IC50 (Jurkat, 20 h) above 1000 nM.

Consider `O=CC1=C(c2ccc(NC(=O)c3c(F)cccc3F)cc2)CCC1` [Compound 32, 2,6-Difluoro-N-[4-(2-formyl-cyclopent-1-enyl)-phenyl]-benzamide], for which, for the setting “Jurkat, 20 h”, the IC50 was above 1000 nM.

The compound `C=CC1=C(c2ccc(NC(=O)c3c(F)cccc3F)cc2)CCC1` [Compound 33, 2,6-Difluoro-N-[4-(2-vinyl-cyclopent-1-enyl)-phenyl]-benzamide] displayed an IC50 (Jurkat, 20 h) of 97.1 nM.

Regarding `O=C(Nc1ccc(C2=C(c3cnco3)CCC2)cc1)c1c(F)cccc1F` [Compound 34, 2,6-Difluoro-N-[4-(2-oxazol-5-yl-cyclopent-1-enyl)-phenyl]-benzamide], for the setting “Jurkat, 20 h”, the IC50 was determined as 20.5 nM.

As for `COC(=O)C1=C(c2ccc(NC(=O)c3c(F)cccc3F)cc2)CCCCC1` [Compound 35, 2,6-Difluoro-N-[4-(2-methoxycarbonyl-cyclohept-1-enyl)-phenyl]-benzamide], inhibition (Jurkat, 20 h) was half-maximal at 104 nM (IC50).

For the compound `O=C(Nc1ccc(C2=C(CO)CCCCC2)cc1)c1c(F)cccc1F` [Compound 36, 2,6-Difluoro-N-[4-(2-hydroxymethyl-cyclohept-1-enyl)-phenyl]-benzamide], the half-maximal inhibitory concentration (IC50) (Jurkat, 20 h) is above 1000 nM.

`O=CC1=C(c2ccc(NC(=O)c3c(F)cccc3F)cc2)CCCCC1` [Compound 37, 2,6-Difluoro-N-[4-(2-formyl-cyclohept-1-enyl)-phenyl]-benzamide] registered an IC50 (Jurkat, 20 h) of 774 nM.

For `O=C(Nc1ccc(C2=C(c3cnco3)CCCCC2)cc1)c1c(F)cccc1F` [Compound 38], for the setting “Jurkat, 20 h”, the IC50 stood at 23.1 nM.

Compound `CCOC(=O)C1=C(c2ccc(NC(=O)c3c(F)cccc3F)cc2)CCN(C(=O)OC)CC1` [Compound 39, 2,6-Difluoro-N-[4-(1-methoxycarboxyl-5-ethoxycarbonyl-2,3,6,7-tetrahydro-1H-azepin-4-yl)-phenyl]-benzamide] yielded a 50% inhibitory concentration (IC50) (Jurkat, 20 h) of 380 nM.

In turn, `C=CC1=C(c2ccc(NC(=O)c3c(F)cccc3F)cc2)CCN(C(=O)OC)CC1` [Compound 40, 2,6-Difluoro-N-[4-(1-methoxycarbonyl-5-vinyl-2,3,6,7-tetrahydro-1H-azepin-4-yl)-phenyl]-benzamide] gave an IC50 (Jurkat, 20 h) of 22.8 nM.

In turn, `COC(=O)N1CCC(c2nccs2)=C(c2ccc(NC(=O)c3c(F)cccc3F)cc2)C1` [Compound 41, 2,6-Difluoro-N-[4-(1-methoxycarbonyl-4-thiazol-2-yl-1,2,5,6-tetrahydro-pyridin-3-yl)-phenyl]-benzamide] gave a half-maximal inhibitory concentration (IC50) (Jurkat, 20 h) of 308 nM.

The compound `COC(=O)N1CCC(C(C)C)=C(c2ccc(NC(=O)c3c(F)cccc3F)cc2)C1` [Compound 42, 2,6-Difluoro-N-[4-(1-methoxycarbonyl-4-isopropyl-1,2,5,6-tetrahydro-pyridin-3-yl)-phenyl]-benzamide] showed an IC50 (Jurkat, 20 h) of 11.9 nM.
